# In ChEMBL document CHEMBL5055643, “Sophoraflavanone G Resensitizes ABCG2-Overexpressing Multidrug-Resistant Non-Small-Cell Lung Cancer Cells to Chemotherapeutic Drugs” (J Nat Prod, 2021):
# Calls of active or inactive are those of the source. The calls are words filed in the database; no cut-off is given here.
# Legend:
# A549 [1] = test: Cytotoxicity against human A549 cells assessed as reduction in cell viability measured after 72 hrs by CCK8 assay; type: cell-based; conditions: A549, 72 h
# HEK293 [2] = test: Cytotoxicity against human HEK293 cells assessed as reduction in cell viability measured after 72 hrs by CCK8 assay; type: cell-based; conditions: HEK293, 72 h
# ABCG2 = test: Resistance factor, ratio of IC50 for becatecarin-selected ABCG2-overexpressing human A549/Bec150 cells to IC50 for human A549 cells; type: ADME; conditions: read-out: Ratio IC50
# NCI-H460 [3] = test: Chemo-sensitizing activity against human NCI-H460 cells assessed as reversal fold at 1 uM measured after 72 hrs in presence of mitoxantrone by CCK8 assay relative to control; type: functional
# NCI-H460 [4] = test: Chemo-sensitizing activity against mitoxantrone-selected ABCG2-overexpressing human NCI-H460/MX20 cells assessed as reversal fold at 1 uM measured after 72 hrs in presence of mitoxantrone by CCK8 assay relative to control; type: functional
# NCI-H460 [5] = test: Chemo-sensitizing activity against mitoxantrone-selected ABCG2-overexpressing human NCI-H460/MX20 cells assessed as reversal fold at 2 uM measured after 72 hrs in presence of mitoxantrone by CCK8 assay relative to control; type: functional
# NCI-H460 [6] = test: Chemo-sensitizing activity against human NCI-H460 cells assessed as reversal fold at 5 uM measured after 72 hrs in presence of SN-38 by CCK8 assay relative to control; type: functional
# NCI-H460 [7] = test: Chemo-sensitizing activity against mitoxantrone-selected ABCG2-overexpressing human NCI-H460/MX20 cells assessed as reversal fold at 5 uM measured after 72 hrs in presence of SN-38 by CCK8 assay relative to control; type: functional
# NCI/ADR-RES [8] = test: Chemo-sensitizing activity against ABCB1-overexpressing human NCI/ADR-RES cells assessed as reversal fold at 5 uM measured after 72 hrs in presence of paclitaxel by CCK8 assay relative to control; type: functional
# A549 [9] = test: Chemo-sensitizing activity against becatecarin-selected ABCG2-overexpressing human A549/Bec150 cells assessed as reversal fold at 2 uM measured after 72 hrs in presence of mitoxantrone by CCK8 assay relative to control; type: functional
# A549 [10] = test: Chemo-sensitizing activity against human A549 cells assessed as reversal fold at 5 uM measured after 72 hrs in presence of topotecan by CCK8 assay relative to control; type: functional
# A549 [11] = test: Chemo-sensitizing activity against becatecarin-selected ABCG2-overexpressing human A549/Bec150 cells assessed as reversal fold at 2 uM measured after 72 hrs in presence of topotecan by CCK8 assay relative to control; type: functional
# A549 [12] = test: Chemo-sensitizing activity against becatecarin-selected ABCG2-overexpressing human A549/Bec150 cells assessed as reversal fold at 2 uM measured after 72 hrs in presence of SN-38 by CCK8 assay relative to control; type: functional
# HEK293 [13] = test: Chemo-sensitizing activity against ABCG2-overexpressing human HEK293/482R cells assessed as reversal fold at 5 uM measured after 72 hrs in presence of mitoxatrone by CCK8 assay relative to control; type: functional
# HEK293 [14] = test: Chemo-sensitizing activity against ABCG2-overexpressing human HEK293 cells assessed as reversal fold at 1 uM measured after 72 hrs in presence of topotecan by CCK8 assay relative to control; type: functional
# HEK293 [15] = test: Chemo-sensitizing activity against ABCG2-overexpressing human HEK293 cells assessed as reversal fold at 2 uM measured after 72 hrs in presence of topotecan by CCK8 assay relative to control; type: functional
# HEK293 [16] = test: Chemo-sensitizing activity against human HEK293 cells assessed as reversal fold at 1 uM measured after 72 hrs in presence of SN-38 by CCK8 assay relative to control; type: functional
# HEK293 [17] = test: Chemo-sensitizing activity against human HEK293 cells assessed as reversal fold at 2 uM measured after 72 hrs in presence of SN-38 by CCK8 assay relative to control; type: functional
# HEK293 [18] = test: Chemo-sensitizing activity against ABCG2-overexpressing human HEK293/482R cells assessed as reversal fold at 5 uM measured after 72 hrs in presence of SN-38 by CCK8 assay relative to control; type: functional
# OVCAR-8 = test: Chemo-sensitizing activity against human OVCAR-8 cells assessed as reversal fold at 2 uM measured after 72 hrs in presence of vincristine by CCK8 assay relative to control; type: functional
# NCI/ADR-RES [19] = test: Chemo-sensitizing activity against ABCB1-overexpressing human NCI/ADR-RES cells assessed as reversal fold at 1 uM measured after 72 hrs in presence of vincristine by CCK8 assay relative to control; type: functional
# NCI/ADR-RES [20] = test: Chemo-sensitizing activity against ABCB1-overexpressing human NCI/ADR-RES cells assessed as reversal fold at 2 uM measured after 72 hrs in presence of colchicine by CCK8 assay relative to control; type: functional
# KB 3-1 = test: Chemo-sensitizing activity against human KB 3-1 cells assessed as reversal fold at 1 uM measured after 72 hrs in presence of paclitaxel by CCK8 assay relative to control; type: functional
# KB-V1 = test: Chemo-sensitizing activity against ABCB1-oveexpressing human KB-V1 cells assessed as reversal fold at 5 uM measured after 72 hrs in presence of colchicine by CCK8 assay relative to control; type: functional
# HEK293 [21] = test: Chemo-sensitizing activity against ABCB1-overexpressing human HEK293/MDR19 cells assessed as reversal fold at 2 uM measured after 72 hrs in presence of vincristine by CCK8 assay relative to control; type: functional
# HEK293 [22] = test: Chemo-sensitizing activity against human HEK293 cells assessed as reversal fold at 1 uM measured after 72 hrs in presence of paclitaxel by CCK8 assay relative to control; type: functional
# HEK293 [23] = test: Chemo-sensitizing activity against ABCB1-overexpressing human HEK293/MDR19 cells assessed as reversal fold at 1 uM measured after 72 hrs in presence of paclitaxel by CCK8 assay relative to control; type: functional
# NCI-H460 [24] = test: Effect on ABCG2 protein expression in mitoxantrone-selected ABCG2-overexpressing human NCI-H460/MX20 cells at 1 to 5 uM incubated for 72 hrs by immunoblot analysis; type: functional, cell-based; conditions: dose 1-5 µM
# [25] = Cytotoxicity against human A549 cells assessed as cell viability at 1 to 5 uM measured after 72 hrs by CCK8 assay; type: cell-based; conditions: dose 1-5 µM, read-out: Activity
# [26] = Cytotoxicity against becatecarin-selected ABCG2-overexpressing human A549/Bec150 cells assessed as cell viability at 1 to 5 uM measured after 72 hrs by CCK8 assay; type: ADME, cell-based; conditions: dose 1-5 µM, read-out: Activity
smiles,measurement,setting,value
C=C(C)[C@H](CC=C(C)C)Cc1c(O)cc(O)c2c1O[C@H](c1ccc(O)cc1O)CC2=O [SOPHORAFLAVANONE G],IC50,A549 [1],26.2 µM
same,IC50,HEK293 [2],35.1 µM
same,selectivity ratio,ABCG2,0.8
same,fold change (FC),NCI-H460 [3],2.3
same,fold change (FC),NCI-H460 [4],1.9
same,fold change (FC),NCI-H460 [5],2.7
same,fold change (FC),NCI-H460 [6],2.8
same,fold change (FC),NCI-H460 [7],10.1
same,fold change (FC),NCI/ADR-RES [8],1.4
same,fold change (FC),A549 [9],5.9
same,fold change (FC),A549 [10],1.4
same,fold change (FC),A549 [11],1.8
same,fold change (FC),A549 [12],2.7
same,fold change (FC),HEK293 [13],5.6
same,fold change (FC),HEK293 [14],1.7
same,fold change (FC),HEK293 [15],2.3
same,fold change (FC),HEK293 [16],1
same,fold change (FC),HEK293 [17],0.9
same,fold change (FC),HEK293 [18],6.4
same,fold change (FC),OVCAR-8,1
same,fold change (FC),NCI/ADR-RES [19],1
same,fold change (FC),NCI/ADR-RES [20],0.8
same,fold change (FC),KB 3-1,0.9
same,fold change (FC),KB-V1,0.8
same,fold change (FC),HEK293 [21],0.9
same,fold change (FC),HEK293 [22],1.1
same,fold change (FC),HEK293 [23],0.8
same,Activity,NCI-H460 [24],inactive
same,"viability at 72 h, up to 5 µM",[25],> 90%
same,"viability at 72 h, up to 5 µM",[26],> 90%
